Results taken from patent publication US20160206620A1, “PURIN DERIVATIVES FOR USE IN THE TREATMENT OF FAB-RELATED DISEASES” (Boehringer Ingelheim International GmbH, priority 2008, published 2016).

Assays:
[1] = 2 h postprandial blood glucose excursions in patients with type 2 diabetes; type: in vivo, human; settings: already on Day 1, doses ≧2.5 mg
Excerpt: […]. […] […]. […] […].

ob/ob mice [2] = assay: Wound healing of excisional wounds in ob/ob mice (histology, Ly6G staining); type: in vivo, mouse; settings: 3 mg/kg daily
Excerpt: The ob/ob mice have been used and are accepted as experimental model for diabetes-impaired wound healing. These animals suffer from severe diabetes and obesity syndromes which show similar characteristics like in the human situation (e.g. obesity, insulin resistance). Insulin and diet reduce hyperglycemia in obese mice just they as they do in obese and diabetic subjects, but neither improves healing in these animals as has been shown recently.
(§1) Female C57BI/6J-ob/ob mice (Charles River, Sulzfeld) in the age of 8-9 weeks were used. 6 excisional wounds (including the panniculus carnosus) were placed on the back of each animal under ketamin anaesthesia. The animals were treated daily with 3 mg/kg of BI 1356 or methycellulose (1-2%). On day 10 an oral glucose tolerance test (2 g/kg) was performed (0, 30, 60, 90, 120 and 180 min) at the tail tip. Animals were killed under isofluran anaesthesia by cervical dislocation and wounds were excised for histological analysis. Serum was further taken for the detection of DPP-4 activity. Histology was performed in 6-8 μm paraffin embedded and paraformaldehyd fixed cuttings with eosin-hematoxylin staining. Moreover, polymorphonuclear neutrophils (PMN) were identified by immunohistological staining of Ly6G as a robust readout for wound inflammation. (Ref. S. Frank, Methods in Molecular Medicine 2003, Kämpfer, Diabetes 2006)

ob/ob mice [3] = assay: Oral glucose tolerance test in ob/ob mice; type: in vivo, mouse; settings: 3 mg/kg daily, OGTT 2 g/kg on day 10
Protocol: as §1

clinical = settings: human, urine
[4] = Safety and tolerability in people with type 2 diabetes
[5] = Pharmacokinetics of BI 1356 in patients with type 2 diabetes, multiple oral doses once daily for 12 days; settings: for RA, AUC (accumulation ratio), gMean (gCV) / RA, Cmax (accumulation ratio), gMean (gCV) / feτ, ss, gMean (gCV): steady state (Day 12); for fe0-24, gMean (gCV): type 2 diabetes patients

Q: Which results are given for `CC#CCn1c(N2CCC[C@@H](N)C2)nc2c1c(=O)n(Cc1nc(C)c3ccccc3n1)c(=O)n2C` [BI 1356, 1-[(4-methyl-quinazolin-2-yl)methyl]-3-methyl-7-(2-butyn-1-yl)-8-(3-(R)-amino-piperidin-1-yl)-xanthine]?
A: decrease in 2 h postprandial blood glucose excursions [1]: ≥ 80%; PMN accumulation in wounds (Ly6G immunohistology) (ob/ob mice [2]): overall reduction of PMN accumulation; wound morphology and wound re-epithelialization (histology) (ob/ob mice [2]): profound improvement of wound morphology and wound re-epithelialization; distance between wound margin epithelia (wound size) (ob/ob mice [2]; treated for 12 day, control 2.02±1.07 mm): 0.74±0.90 mm; reduction of glucose excursion following oral glucose tolerance assay (absolute AUC) (ob/ob mice [3]): 25%; CL renal (clinical; oral, 5 mg): ~70 mL/min; CL renal (clinical; po): 14 to 70 mL/min; safety and tolerability [4]: placebo-like safety and tolerability; RA, AUC (accumulation ratio), gMean (gCV) ([5]; 1 mg oral once daily): 2.03 (30.7); RA, Cmax (accumulation ratio), gMean (gCV) ([5]; 1 mg oral once daily): 1.44 (25.6); feτ, ss, gMean (gCV) ([5]; 1 mg oral once daily): 3.34 (38.3) %; RA, AUC (accumulation ratio), gMean (gCV) ([5]; 2.5 mg oral once daily): 1.37 (8.2); RA, Cmax (accumulation ratio), gMean (gCV) ([5]; 2.5 mg oral once daily): 1.25 (10.6); feτ, ss, gMean (gCV) ([5]; 2.5 mg oral once daily): 3.06 (45.1) %; fe0-24, gMean (gCV) ([5]; 2.5 mg oral once daily): 0.139 (51.2) %; RA, AUC (accumulation ratio), gMean (gCV) ([5]; 5 mg oral once daily): 1.33 (15.0); RA, Cmax (accumulation ratio), gMean (gCV) ([5]; 5 mg oral once daily): 1.33 (30.0); feτ, ss, gMean (gCV) ([5]; 5 mg oral once daily): 6.27 (42.2) %; fe0-24, gMean (gCV) ([5]; 5 mg oral once daily): 0.453 (125)^ %; RA, AUC (accumulation ratio), gMean (gCV) ([5]; 10 mg oral once daily): 1.18 (23.4); RA, Cmax (accumulation ratio), gMean (gCV) ([5]; 10 mg oral once daily): 1.40 (47.7); feτ, ss, gMean (gCV) ([5]; 10 mg oral once daily): 3.22 (34.2) %; fe0-24, gMean (gCV) ([5]; 10 mg oral once daily): 0.919 (115)^ %; mean accumulation ratio RA,AUC ([5]; doses above 1 mg, once daily oral): ≤ 1.4; excreted via the kidney ([5]; therapeutic oral dose levels): < 7 % of the administered oral dose; route of excretion ([5]; therapeutic oral dose levels): primarily excreted unchanged via the bile
